Results from patent EP0527889B1, “QUINOLIZINONE TYPE COMPOUNDS” (priority 1990, dated 1991).
Where a name gives a salt, the structure may show the parent alone.

Experiments:
[1] = system: Acinetobacter calcoaceticus CMX 669; assay: In vitro antibacterial activity, MIC by agar dilution; format: cell-based; conditions: BHI agar, 35-37°C, 20-24 hours, unit assumed
In short: (§1)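 First, strains diluted 1:100 (1:10 if slow-growing) are spotted at about 10^4 CFU onto compound-containing agar. Next, plates incubate 20–24 hours near 35–37°C. Finally, growth is compared with BHI agar lacking compound to assign the MIC.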

[2] = system: Enterobacter aerogenes ATCC 13048; assay: as above; format: cell-based; conditions: BHI agar, 35-37°C, 20-24 hours, unit assumed
In short: as §1

[3] = system: Enterococcus faecium ATCC 8043; assay: as above; format: cell-based; conditions: BHI agar, 35-37°C, 20-24 hours, unit assumed
In short: as §1

Escherichia coli DC-2 = assay: as above; format: cell-based; conditions: BHI agar, 35-37°C, 20-24 hours, unit assumed
In short: as §1

Escherichia coli H560 = assay: as above; format: cell-based; conditions: BHI agar, 35-37°C, 20-24 hours, unit assumed
In short: as §1

Escherichia coli JUHL [4] = assay: as above; format: cell-based; conditions: BHI agar, 35-37°C, 20-24 hours, unit assumed
In short: as §1

Escherichia coli KNK 437 = assay: as above; format: cell-based; conditions: BHI agar, 35-37°C, 20-24 hours, unit assumed
In short: as §1

Escherichia coli SS = assay: as above; format: cell-based; conditions: BHI agar, 35-37°C, 20-24 hours, unit assumed
In short: as §1

[5] = system: Klebsiella pneumoniae ATCC 8045; assay: as above; format: cell-based; conditions: BHI agar, 35-37°C, 20-24 hours, unit assumed
In short: as §1

[6] = system: Micrococcus luteus ATCC 4698; assay: as above; format: cell-based; conditions: BHI agar, 35-37°C, 20-24 hours, unit assumed
In short: as §1

[7] = system: Micrococcus luteus ATCC 9341; assay: as above; format: cell-based; conditions: BHI agar, 35-37°C, 20-24 hours, unit assumed
In short: as §1

[8] = system: Providencia stuartii CMX 640; assay: as above; format: cell-based; conditions: BHI agar, 35-37°C, 20-24 hours, unit assumed
In short: as §1

[9] = system: Pseudomonas aeruginosa 2862; assay: as above; format: cell-based; conditions: BHI agar, 35-37°C, 20-24 hours, unit assumed
In short: as §1

[10] = system: Pseudomonas aeruginosa 5263; assay: as above; format: cell-based; conditions: BHI agar, 35-37°C, 20-24 hours, unit assumed
In short: as §1

[11] = system: Pseudomonas aeruginosa A5007; assay: as above; format: cell-based; conditions: BHI agar, 35-37°C, 20-24 hours, unit assumed
In short: as §1

[12] = system: Pseudomonas aeruginosa BMH10; assay: as above; format: cell-based; conditions: BHI agar, 35-37°C, 20-24 hours, unit assumed
In short: as §1

[13] = system: Pseudomonas aeruginosa K799/61; assay: as above; format: cell-based; conditions: BHI agar, 35-37°C, 20-24 hours, unit assumed
In short: as §1

[14] = system: Pseudomonas aeruginosa K799/WT; assay: as above; format: cell-based; conditions: BHI agar, 35-37°C, 20-24 hours, unit assumed
In short: as §1

Pseudomonas cepacia 296I = assay: as above; format: cell-based; conditions: BHI agar, 35-37°C, 20-24 hours, unit assumed
In short: as §1

[15] = system: Staphylococcus aureus 1775; assay: as above; format: cell-based; conditions: BHI agar, 35-37°C, 20-24 hours, unit assumed
In short: as §1

[16] = system: Staphylococcus aureus 642A; assay: as above; format: cell-based; conditions: BHI agar, 35-37°C, 20-24 hours, unit assumed
In short: as §1

[17] = system: Staphylococcus aureus A-5278; assay: as above; format: cell-based; conditions: BHI agar, 35-37°C, 20-24 hours, unit assumed
In short: as §1

[18] = system: Staphylococcus aureus A5177; assay: as above; format: cell-based; conditions: BHI agar, 35-37°C, 20-24 hours, unit assumed
In short: as §1

[19] = system: Staphylococcus aureus ATCC 6538P; assay: as above; format: cell-based; conditions: BHI agar, 35-37°C, 20-24 hours, unit assumed
In short: as §1

[20] = system: Staphylococcus aureus CMX 553; assay: as above; format: cell-based; conditions: BHI agar, 35-37°C, 20-24 hours, unit assumed
In short: as §1

[21] = system: Staphylococcus aureus NCTC 10649; assay: as above; format: cell-based; conditions: BHI agar, 35-37°C, 20-24 hours, unit assumed
In short: as §1

[22] = system: Staphylococcus epidermidis 3519; assay: as above; format: cell-based; conditions: BHI agar, 35-37°C, 20-24 hours, unit assumed
In short: as §1

[23] = system: Streptococcus agalactaciae CMX 508; assay: as above; format: cell-based; conditions: BHI agar, 35-37°C, 20-24 hours, unit assumed
In short: as §1

[24] = system: Streptococcus bovis A5169; assay: as above; format: cell-based; conditions: BHI agar, 35-37°C, 20-24 hours, unit assumed
In short: as §1

[25] = system: Streptococcus pyrogenes 2548 INDUC; assay: as above; format: cell-based; conditions: BHI agar, 35-37°C, 20-24 hours, unit assumed
In short: as §1

[26] = system: Streptococcus pyrogenes CONST; assay: as above; format: cell-based; conditions: BHI agar, 35-37°C, 20-24 hours, unit assumed
In short: as §1

[27] = system: Streptococcus pyrogenes EES61; assay: as above; format: cell-based; conditions: BHI agar, 35-37°C, 20-24 hours, unit assumed
In short: as §1

[28] = system: Staphylococcus aureus NCTC 10649; assay: In vivo antibacterial activity in mice (protection from lethal intraperitoneal infection); conditions: NCTC10649, 144 h, S. aureus, CF-1 female mice infected intraperitoneally with 100 times the LD50, treated at 1 and 5 hr after infection, cumulative mortalities on the sixth day
Experimental: (§2) The in vivo antibacterial activity of the compounds of the present invention was determined as follows: Aqueous solutions of the test compounds were prepared by dissolving the compound in distilled water, except for the compounds of examples 169 and 170 which were dissolved in a solution of 2% DMSO in distilled water.
(§3) After 18 hr incubation, a culture of Staphylococcus aureus NCTC 10649 was serially diluted by using 10-fold dilutions in 5% (w/v) hog gastric mucin. Cultures (0.5 mL) in a dilution from 10^-1 to 10^-8 were injected intraperitoneally into CF-1 female mice weighing approximately 20g. The LD50 (median lethal dose) for the test organism was calculated from the cumulative mortalities on the sixth day by the using the Reed and Muench procedure (Reed, L.J., and H. Muench, Amer. J. Hygiene, 27, 493 (1938)).
(§4) The above 18 hr culture was diluted in 5% (w/v) hog gastric mucin to obtain 100 times the LD50, and 0.5 mL was injected intraperitoneally into mice. The mice were treated subcutaneously (sc) or orally (po) with a specific amount of the test compound divided equally to be administered at 1 and 5 hr after infection. A group of 10 animals each for at least three dose levels was thus treated, and the deaths were recorded daily for 6 days. Ten mice were left untreated as infection control. ED50 values were calculated from the cumulative mortalities on the sixth day after infection by using the trimmed version of the Logit method ( Hamilton, M.A., R.C. Russo, and R.V. Thurston, Environ. Sci. Technol. 11, 714 (1977)).

Escherichia coli JUHL [29] = assay: as above; conditions: 144 h, E. coli JUHL, mice infected intraperitoneally, treated at 1 and 5 hr after infection, cumulative mortalities on the sixth day
Experimental: as §2, §3, §4
The LD50 for Escherichia coli JUHL was determined in a manner similar to that above for S. aureus. The 18 hr cultures of this organism were also prepared for po and sc testing in mice, from which ED50 values were calculated. Positive controls were run with temafloxacin as the test compound, for which ED50 values were also calculated.

Compound | MIC values [1] | MIC values [2] | MIC values [3] | MIC values (Escherichia coli DC-2) | MIC values (Escherichia coli H560) | MIC values (Escherichia coli JUHL [4]) | MIC values (Escherichia coli KNK 437) | MIC values (Escherichia coli SS) | MIC values [5] | MIC values [6] | MIC values [7] | MIC values [8] | MIC values [9] | MIC values [10] | MIC values [11] | MIC values [12] | ED50 ([28]; po) | ED50 ([28]; sc) | ED50 (Escherichia coli JUHL [29]; po) | ED50 (Escherichia coli JUHL [29]; sc) | other results
CCC[C@H](N)C(=O)NC1CCN(c2nc3c(-c4ccc(F)cc4F)cc(C(=O)O)c(=O)n3cc2F)C1 (stereo partly drawn) [Example 166, 9-(2,4-Difluorophenyl)-3-fluoro-2-(3-(N-(S)-norvalyl)aminopyrrolidin-1-yl)-6H-6-oxopyrido[1,2-a]pyrimidine-7-carboxylic acid hydrochloride salt] | 3.1 mg/L | 3.1 mg/L | 12.5 mg/L | 12.5 mg/L | 0.78 mg/L | 0.78 mg/L | 6.2 mg/L | 0.05 mg/L | 1.56 mg/L | 25 mg/L | 50 mg/L | > 100 mg/L | > 100 mg/L | > 100 mg/L | 6.2 mg/L | 3.1 mg/L | > 24 mg/kg | 8 mg/kg | 25 mg/kg | < 2.5 mg/kg | MIC values [13]: 0.39 mg/L; MIC values [14]: 6.2 mg/L; MIC values (Pseudomonas cepacia 296I): > 100 mg/L; MIC values [15]: > 100 mg/L; MIC values [16]: 1.56 mg/L; MIC values [17]: 1.56 mg/L; MIC values [18]: 1.56 mg/L; MIC values [19]: 0.39 mg/L; MIC values [20]: 3.1 mg/L; MIC values [21]: 0.39 mg/L; MIC values [22]: 0.78 mg/L; MIC values [23]: 3.1 mg/L; MIC values [24]: 25 mg/L; MIC values [25]: 1.56 mg/L; MIC values [26]: 1.56 mg/L; MIC values [27]: 1.56 mg/L
C[C@H](N)C(=O)NC1CCN(c2nc3c(-c4ccc(F)cc4F)cc(C(=O)O)c(=O)n3cc2F)C1 (stereo partly drawn) [Example 167, 2-(3-(N-(S)-Alanyl)aminopyrrolidin-1-yl)-9-(2,4-difluorophenyl)-3-fluoro-6H-6-oxopyrido[1,2-a]pyrimidine-7-carboxylic acid hydrochloride] | 12.5 mg/L | 3.1 mg/L | 12.5 mg/L | 25 mg/L | 1.56 mg/L | 1.56 mg/L | 25 mg/L | 0.05 mg/L | 3.1 mg/L | 50 mg/L | 50 mg/L | 100 mg/L | > 100 mg/L | > 100 mg/L | 6.2 mg/L | 12.5 mg/L | 14.4 mg/kg | 2.7 mg/kg | 16.6 mg/kg | < 2.5 mg/kg | MIC values [13]: 1.56 mg/L; MIC values [14]: 6.2 mg/L; MIC values (Pseudomonas cepacia 296I): 100 mg/L; MIC values [15]: > 100 mg/L; MIC values [16]: 3.1 mg/L; MIC values [17]: 1.56 mg/L; MIC values [18]: 3.1 mg/L; MIC values [19]: 0.78 mg/L; MIC values [20]: 6.2 mg/L; MIC values [21]: 0.78 mg/L; MIC values [22]: 3.1 mg/L; MIC values [23]: 6.2 mg/L; MIC values [24]: 12.5 mg/L; MIC values [25]: 1.56 mg/L; MIC values [26]: 3.1 mg/L; MIC values [27]: 6.2 mg/L
C[C@H](N)C(=O)N[C@@H](C)C(=O)NC1CCN(c2nc3c(-c4ccc(F)cc4F)cc(C(=O)O)c(=O)n3cc2F)C1 (stereo partly drawn) [Example 168, 2-(3-(N-(S)-Alanyl-(S)-alanyl)aminopyrrolidin-1-yl)-9-(2,4-difluorophenyl)-3-fluoro-6H-6-oxopyrido[1,2-a]pyrimidine-7-carboxylic acid hydrochloride] | 12.5 mg/L | 3.1 mg/L | 12.5 mg/L | 25 mg/L | 0.78 mg/L | 0.78 mg/L | 12.5 mg/L | 0.05 mg/L | 3.1 mg/L | 50 mg/L | 50 mg/L | 100 mg/L | > 100 mg/L | > 100 mg/L | 12.5 mg/L | 3.1 mg/L | 3 mg/kg | 2.8 mg/kg | 14.3 mg/kg | < 2.5 mg/kg | MIC values [13]: 1.56 mg/L; MIC values [14]: 6.2 mg/L; MIC values (Pseudomonas cepacia 296I): > 100 mg/L; MIC values [15]: > 100 mg/L; MIC values [16]: 3.1 mg/L; MIC values [17]: 3.1 mg/L; MIC values [18]: 3.1 mg/L; MIC values [19]: 0.78 mg/L; MIC values [20]: 6.2 mg/L; MIC values [21]: 0.78 mg/L; MIC values [22]: 3.1 mg/L; MIC values [23]: 6.2 mg/L; MIC values [24]: 12.5 mg/L; MIC values [25]: 1.56 mg/L; MIC values [26]: 3.1 mg/L; MIC values [27]: 6.2 mg/L
CC1CN(c2cc3c(cc2F)c(=O)c(C(=O)O)cn3-c2ccc(F)cc2F)CCN1 (stereo not shown) [temafloxacin, reference compound] | – | – | – | – | – | – | – | – | – | – | – | – | – | – | – | – | 1.5 mg/kg | 1.3 mg/kg | 1.5 mg/kg | 0.5 mg/kg | –
